The EC50 is the concentration needed to bring the measured effect to its halfway point. High values mean lower potency in that assay, low ones higher potency in that assay.

For one compound, EC50 results are on record in ChEMBL document CHEMBL3044797 (Crop Prot, 2008).

Each structure is given as a SMILES string. Converted amounts (≈) assume the structure as drawn.

For test [1], the system named is Fusarium graminearum. The test can be described thus: Fungicidal activity against compound-resistant Fusarium graminearum isolate. In kind it is functional, organism-based.
The subject of test [2] is Fusarium graminearum. Put plainly: Fungicidal activity against carbendazim-resistant Fusarium graminearum isolate. It is filed as functional, organism-based.

For the compound `CCOC(=O)/C(C#N)=C(/N)c1ccccc1`, the concentration giving a half-maximal response (EC50) is 0.14 µg/mL (≈ 0.647 µM) in the test on Fusarium graminearum [1] and 0.115 µg/mL (≈ 0.532 µM) with Fusarium graminearum [2].
